Assay [1] has as its system Mycobacterium tuberculosis. Description: Antimycobacterial activity against Mycobacterium tuberculosis H37Rv ATCC 27294 microplate alamar blue assay. Type of assay: functional.
The nature of assay [2]: Selectivity index, ratio of CC50 for african green monkey Vero cells to MIC for Mycobacterium tuberculosis H37Rv ATCC 27294. Type of assay: functional.

Values after ≈ are worked out from the molar mass of the structure shown.

Regarding `Cc1c(C(=O)NCc2ccc(C(F)(F)F)cc2)[n+]([O-])c2cc(Cl)c(Cl)cc2[n+]1[O-]`, the IC90 in assay [1] amounted to 6.58 µg/mL (≈ 14.7 µM). Besides, the “Selectivity Index” value in assay [2] is on record as above 6.08.

For `Cc1c(C(=O)NCc2ccc(Cl)cc2)[n+]([O-])c2ccccc2[n+]1[O-]`, the 90% effect level in assay [1] (IC90) was put at 11 µg/mL (≈ 32.1 µM).

With `Cc1c(C(=O)NCc2ccc(Cl)cc2)[n+]([O-])c2cc(Cl)ccc2[n+]1[O-]`, the IC90 in assay [1] was found to be 29.7 µg/mL (≈ 78.5 µM).

As to `Cc1ccc2c(c1)[n+]([O-])c(C(=O)NCc1ccc(Cl)cc1)c(C)[n+]2[O-]`, it took 14.6 µg/mL (≈ 40.7 µM) to reach the 90% level in assay [1] (IC90).

Turning to `Cc1c(C(=O)NCc2ccc(Cl)cc2)[n+]([O-])c2cc(Cl)c(Cl)cc2[n+]1[O-]`, the IC90 in assay [1] was determined as 51.9 µg/mL (≈ 126 µM).

For `Cc1c(C(=O)NCc2ccc(Br)cc2)[n+]([O-])c2ccccc2[n+]1[O-]`, it took 15.6 µg/mL (≈ 40.2 µM) to reach the 90% level in assay [1] (IC90).

In the case of `Cc1c(C(=O)NCc2ccc(Br)cc2)[n+]([O-])c2cc(Cl)ccc2[n+]1[O-]`, the IC90 in assay [1] was determined as 5.33 µg/mL (≈ 12.6 µM). The “Selectivity Index” value in assay [2] is above 7.5.

On to `Cc1ccc2c(c1)[n+]([O-])c(C(=O)NCc1ccc(Br)cc1)c(C)[n+]2[O-]`, for which the 90% effect concentration (IC90) in assay [1] was 78.2 µg/mL (≈ 194 µM).

Regarding `Cc1c(C(=O)NCc2ccc(Br)cc2)[n+]([O-])c2cc(Cl)c(Cl)cc2[n+]1[O-]`, it took 6.92 µg/mL (≈ 15.1 µM) to reach the 90% level in assay [1] (IC90). Also, the “Selectivity Index” value in assay [2] is above 5.78.

Compound `Cc1ccc(CNC(=O)c2c(C)[n+]([O-])c3ccccc3[n+]2[O-])cc1` came in with an IC90 in assay [1] of 6.76 µg/mL (≈ 20.9 µM). Also, in assay [2], the “Selectivity Index” value is above 5.92.

As for `O=C(Nc1ccccc1)c1c(-c2ccccc2)[n+]([O-])c2ccccc2[n+]1[O-]`, the IC90 in assay [1] is 27 µg/mL (≈ 75.5 µM).

In the case of `O=C(Nc1ccccc1)c1c(-c2ccccc2)[n+]([O-])c2ccc(Cl)cc2[n+]1[O-]`, in assay [1], the IC90 was found to be 6.71 µg/mL (≈ 17.1 µM). The “Selectivity Index” value in assay [2] amounted to 1.34.

Turning to `Cc1ccc(CNC(=O)c2c(C)[n+]([O-])c3ccc(Cl)cc3[n+]2[O-])cc1`, in assay [1], the IC90 came to 32 µg/mL (≈ 89.5 µM).

Take `Cc1ccc(CNC(=O)c2c(C)[n+]([O-])c3ccc(C)cc3[n+]2[O-])cc1`: in assay [1], the IC90 came out at 99.9 µg/mL (≈ 296 µM).

As for `O=C(Nc1ccccc1)c1c(-c2ccccc2)[n+]([O-])c2ccc(F)cc2[n+]1[O-]`, it took 17.9 µg/mL (≈ 47.8 µM) to reach the 90% level in assay [1] (IC90).

In turn, `O=C(Nc1ccccc1)c1c(-c2ccccc2)[n+]([O-])c2ccc(C(F)(F)F)cc2[n+]1[O-]` came in with an IC90 in assay [1] of 19.1 µg/mL (≈ 44.9 µM).

`Cc1ccc(CNC(=O)c2c(C)[n+]([O-])c3cc(Cl)c(Cl)cc3[n+]2[O-])cc1` returned an IC90 in assay [1] above 100 µg/mL.

The compound `Cc1c(C(=O)NCC(c2ccccc2)c2ccccc2)[n+]([O-])c2ccccc2[n+]1[O-]` returned an IC90 in assay [1] of 16 µg/mL (≈ 40 µM).

`Cc1ccc2c(c1)[n+]([O-])c(C(=O)Nc1ccccc1)c(-c1ccccc1)[n+]2[O-]` registered an IC90 in assay [1] of 24.6 µg/mL (≈ 66.4 µM).

In turn, `COc1ccc2c(c1)[n+]([O-])c(C(=O)Nc1ccccc1)c(-c1ccccc1)[n+]2[O-]` displayed an IC90 in assay [1] of 26.8 µg/mL (≈ 69.3 µM).

In assay [1], `Cc1c(C(=O)NCC(c2ccccc2)c2ccccc2)[n+]([O-])c2cc(Cl)ccc2[n+]1[O-]` showed an IC90 of 60.4 µg/mL (≈ 139 µM).

`Cc1ccc2c(c1)[n+]([O-])c(C(=O)NCC(c1ccccc1)c1ccccc1)c(C)[n+]2[O-]` returned an IC90 in assay [1] of 16.8 µg/mL (≈ 40.6 µM).

In assay [1], `O=C(Nc1ccccc1)c1c(-c2ccccc2)[n+]([O-])c2cc(Cl)c(Cl)cc2[n+]1[O-]` displayed an IC90 of 6.63 µg/mL (≈ 15.6 µM). Moreover, in assay [2], the “Selectivity Index” value came to 0.84.

Consider `O=C(NCc1ccccc1)c1c(-c2ccccc2)[n+]([O-])c2ccccc2[n+]1[O-]`, for which the IC90 in assay [1] amounted to 6.71 µg/mL (≈ 18.1 µM). Also, the “Selectivity Index” value in assay [2] is reported as above 5.96.

In assay [1], `Cc1c(C(=O)NCC(c2ccccc2)c2ccccc2)[n+]([O-])c2cc(Cl)c(Cl)cc2[n+]1[O-]` displayed an IC90 of 66.5 µg/mL (≈ 142 µM).

As for `Cc1c(C(=O)NCc2ccc3c(c2)OCO3)[n+]([O-])c2ccccc2[n+]1[O-]`, the IC90 in assay [1] came to 22.8 µg/mL (≈ 64.4 µM).

On to `O=C(NCc1ccccc1)c1c(-c2ccccc2)[n+]([O-])c2ccc(Cl)cc2[n+]1[O-]`, for which the 90% effect level in assay [1] (IC90) was put at 3.39 µg/mL (≈ 8.35 µM). Also, in assay [2], the “Selectivity Index” value was above 11.79.

On to `O=C(NCc1ccccc1)c1c(-c2ccccc2)[n+]([O-])c2ccc(F)cc2[n+]1[O-]`, for which the 90% effect level in assay [1] (IC90) was put at 3.86 µg/mL (≈ 9.91 µM). The “Selectivity Index” value in assay [2] turned out to be 4.62.

In assay [1], `Cc1c(C(=O)NCc2ccc3c(c2)OCO3)[n+]([O-])c2cc(Cl)ccc2[n+]1[O-]` returned an IC90 of 6.99 µg/mL (≈ 18 µM). Further, the “Selectivity Index” value in assay [2] is recorded as above 5.72.

Consider `Cc1ccc2c(c1)[n+]([O-])c(C(=O)NCc1ccc3c(c1)OCO3)c(C)[n+]2[O-]`, for which the IC90 in assay [1] came to 13.2 µg/mL (≈ 36 µM).

`O=C(NCc1ccccc1)c1c(-c2ccccc2)[n+]([O-])c2ccc(C(F)(F)F)cc2[n+]1[O-]`: in assay [1], the IC90 was above 100 µg/mL.

`Cc1ccc2c(c1)[n+]([O-])c(C(=O)NCc1ccccc1)c(-c1ccccc1)[n+]2[O-]` had a 90% effect concentration (IC90) in assay [1] of 13.9 µg/mL (≈ 36.1 µM).

Take `Cc1c(C(=O)NCc2ccc3c(c2)OCO3)[n+]([O-])c2cc(Cl)c(Cl)cc2[n+]1[O-]`: in assay [1], the IC90 stood at 34.9 µg/mL (≈ 82.7 µM).

As to `COc1ccc2c(c1)[n+]([O-])c(C(=O)NCc1ccccc1)c(-c1ccccc1)[n+]2[O-]`, in assay [1], the concentration for an effect of 90% (IC90) was 14.6 µg/mL (≈ 36.3 µM).

Regarding `O=C(NCc1ccccc1)c1c(-c2ccccc2)[n+]([O-])c2cc(Cl)c(Cl)cc2[n+]1[O-]`, in assay [1], the 90% effect concentration (IC90) was determined as 25.4 µg/mL (≈ 57.8 µM).

In assay [1], `O=C(NCCc1ccccc1)c1c(-c2ccccc2)[n+]([O-])c2ccccc2[n+]1[O-]` returned a concentration for an effect of 90% (IC90) of 18.6 µg/mL (≈ 48.3 µM).

Take `O=C(NCCc1ccccc1)c1c(-c2ccccc2)[n+]([O-])c2ccc(Cl)cc2[n+]1[O-]`: the IC90 in assay [1] worked out at 15.4 µg/mL (≈ 36.7 µM).

Take `Cc1c(C(=O)NCc2ccc(C(F)(F)F)cc2)[n+]([O-])c2ccccc2[n+]1[O-]`: it took 16.8 µg/mL (≈ 44.6 µM) to reach the 90% level in assay [1] (IC90).

`Cc1c(C(=O)NCc2ccc(C(F)(F)F)cc2)[n+]([O-])c2cc(Cl)ccc2[n+]1[O-]` yielded an IC90 in assay [1] of 6.13 µg/mL (≈ 14.9 µM). In addition, the “Selectivity Index” value in assay [2] is above 6.52.

Consider `Cc1c(C(=O)NCc2ccc(C(F)(F)F)cc2)[n+]([O-])c2cc(F)ccc2[n+]1[O-]`, for which the IC90 in assay [1] came to 4.48 µg/mL (≈ 11.3 µM). Moreover, the “Selectivity Index” value in assay [2] was above 8.94.

Take `Cc1c(C(=O)NCc2ccc(C(F)(F)F)cc2)[n+]([O-])c2cc(C(F)(F)F)ccc2[n+]1[O-]`: the 90% effect level in assay [1] (IC90) was put at 3.38 µg/mL (≈ 7.59 µM). The “Selectivity Index” value in assay [2] was above 11.82.

`Cc1ccc2c(c1)[n+]([O-])c(C(=O)NCc1ccc(C(F)(F)F)cc1)c(C)[n+]2[O-]`: the IC90 in assay [1] was above 100 µg/mL.

`COc1ccc2c(c1)[n+]([O-])c(C(=O)NCc1ccc(C(F)(F)F)cc1)c(C)[n+]2[O-]`: the 90% effect concentration (IC90) in assay [1] was above 100 µg/mL.

`CO[C@H]1/C=C/O[C@@]2(C)Oc3c(C)c(O)c4c(O)c(c(/C=N/N5CCN(C)CC5)c(O)c4c3C2=O)NC(=O)/C(C)=C\C=C\[C@H](C)[C@H](O)[C@@H](C)[C@@H](O)[C@@H](C)[C@H](OC(C)=O)[C@@H]1C` [RIFAMPIN] showed an IC90 in assay [1] of 0.015 µg/mL (≈ 0.0182 µM). In assay [2], the “Selectivity Index” value is above 800.

Source of the values: ChEMBL document CHEMBL1250471, “Synthesis and antimycobacterial activity of new quinoxaline-2-carboxamide 1,4-di-N-oxide derivatives” (2010).
